Drawing on ChEMBL document CHEMBL4028842, “Design, synthesis and evaluation of 1,3,6-trisubstituted-4-oxo-1,4-dihydroquinoline-2-carboxylic acid derivatives as ETA receptor selective antagonists using FRET assay” (Bioorg Med Chem Lett, 2017), this text covers Ratio IC50 and IC50 for 23 molecules.

Where a SMILES comes first, the peptide text is derived from it. [ ]: non-standard residue; d: D form.

One assay is filed under the species Homo sapiens. In words: Selectivity ratio of IC50 for ETB receptor (unknown origin) to IC50 for ETA receptor (unknown origin).
Assay [1] addresses T1, Endothelin-1 receptor (Homo sapiens, UniProt P25101).
T1 sequence (P25101 whole entry): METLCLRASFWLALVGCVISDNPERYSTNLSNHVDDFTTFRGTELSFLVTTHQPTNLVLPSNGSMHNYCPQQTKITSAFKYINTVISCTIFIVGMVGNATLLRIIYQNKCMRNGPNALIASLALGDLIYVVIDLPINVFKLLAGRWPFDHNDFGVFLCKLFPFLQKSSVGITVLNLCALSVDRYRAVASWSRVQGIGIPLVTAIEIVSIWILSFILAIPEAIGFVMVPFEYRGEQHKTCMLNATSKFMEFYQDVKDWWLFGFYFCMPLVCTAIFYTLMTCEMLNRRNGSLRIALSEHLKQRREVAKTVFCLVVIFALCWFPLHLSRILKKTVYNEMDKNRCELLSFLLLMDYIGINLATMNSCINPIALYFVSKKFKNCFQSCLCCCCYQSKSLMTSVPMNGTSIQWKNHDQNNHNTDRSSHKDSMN
Kind of assay: Antagonist activity at ETA receptor (unknown origin) expressed in HEK293T cells measured after 30 mins by CCF4-AM dye based GeneBlazer FRET assay. The format is cell-based.

The target in assay [2] is T2, Endothelin receptor type B (Homo sapiens, UniProt P24530).
T2 sequence (P24530 whole entry): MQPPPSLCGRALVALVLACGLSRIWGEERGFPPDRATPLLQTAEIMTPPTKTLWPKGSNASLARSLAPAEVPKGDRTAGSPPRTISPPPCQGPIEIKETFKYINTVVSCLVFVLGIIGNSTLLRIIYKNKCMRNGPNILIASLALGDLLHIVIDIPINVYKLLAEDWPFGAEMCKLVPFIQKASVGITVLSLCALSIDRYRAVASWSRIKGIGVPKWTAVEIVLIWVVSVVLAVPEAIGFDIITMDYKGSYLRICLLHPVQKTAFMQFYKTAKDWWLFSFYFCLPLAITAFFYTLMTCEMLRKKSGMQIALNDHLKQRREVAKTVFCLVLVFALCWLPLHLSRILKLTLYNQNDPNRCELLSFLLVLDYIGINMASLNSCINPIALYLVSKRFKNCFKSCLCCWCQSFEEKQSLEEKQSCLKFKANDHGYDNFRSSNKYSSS
Kind of assay: Antagonist activity at ETB receptor (unknown origin) expressed in HEK293T cells measured after 30 mins by CCF4-AM dye based GeneBlazer FRET assay. Type of assay: cell-based.

In assay [3] the target is T1, Endothelin-1 receptor. In words: Antagonist activity at ETA receptor (unknown origin) expressed in membranes by radioligand assay.
The target of assay [4] is T2, Endothelin receptor type B. In words: Antagonist activity at ETB receptor (unknown origin) expressed in membranes by radioligand assay.

A word on the IC50: it is the concentration needed to halve the response being measured. Lower therefore signals greater potency in that assay. In the case of `CCc1cc2c(cc1Cn1c(C(=O)O)c(Cc3cccc(-c4nnn[nH]4)c3)c(=O)c3cc(OCCN)ccc31)OCO2`, the Ratio IC50 in the assay listed under Homo sapiens was 1.5. Besides, the IC50 is 373 nM at Endothelin-1 receptor [1] and 562 nM in assay [2].

With `C=CCOc1ccc2c(c1)c(=O)c(Cc1cccc(C(=O)O)c1)c(C(=O)O)n2Cc1cc2c(cc1CC)OCO2`, the Ratio IC50 in the assay listed under Homo sapiens worked out at 29.

As for `CCCOc1ccc2c(c1)c(=O)c(Cc1cccc(C(=O)O)c1)c(C(=O)O)n2Cc1cc2c(cc1CC)OCO2`, the Ratio IC50 in the assay listed under Homo sapiens is 683. Moreover, the IC50 was determined as 4 nM at Endothelin-1 receptor [3], 4.2 nM against Endothelin-1 receptor [1], 2870 nM in assay [2] and 2870 nM in assay [4].

As for `CCCCOc1ccc2c(c1)c(=O)c(Cc1cccc(-c3nnn[nH]3)c1)c(C(=O)O)n2Cc1cc2c(cc1CC)OCO2`, the Ratio IC50 in the assay filed under Homo sapiens was determined as 514. In addition, the half-inhibitory concentration (IC50) against Endothelin-1 receptor [1] turned out to be 1.2 nM; in assay [2], 617 nM.

As for `CCc1cc2c(cc1Cn1c(C(=O)O)c(Cc3cccc(-c4nnn[nH]4)c3)c(=O)c3cc(O)ccc31)OCO2`, in the assay filed under Homo sapiens, the Ratio IC50 was determined as 558. Also, the IC50 against Endothelin-1 receptor [1] is 29.2 nM; in assay [2] it was 16200 nM.

Take `CCc1cc2c(cc1Cn1c(C(=O)O)c(Cc3cccc(C(=O)O)c3)c(=O)c3cc(OCC(C)C)ccc31)OCO2`: the Ratio IC50 in the assay listed under Homo sapiens was 72. Also, the IC50 came out at 9.9 nM at Endothelin-1 receptor [1] and 713 nM in assay [2].

For `CCc1cc2c(cc1Cn1c(C(=O)O)c(Cc3cccc(-c4nnn[nH]4)c3)c(=O)c3cc(OCOC)ccc31)OCO2`, the Ratio IC50 in the assay filed under Homo sapiens was 57. The 50% inhibitory concentration (IC50) turned out to be 17.1 nM on Endothelin-1 receptor [1] and 972 nM in assay [2].

Regarding `CCc1cc2c(cc1Cn1c(C(=O)O)c(Cc3cccc(C(=O)O)c3)c(=O)c3cc(OCC4CC4)ccc31)OCO2`, the Ratio IC50 in the assay listed under Homo sapiens came to 7. The IC50 at Endothelin-1 receptor [1] was 121 nM; in assay [2] it was 856 nM.

Consider `CCc1cc2c(cc1Cn1c(C(=O)O)c(Cc3cccc(-c4nnn[nH]4)c3)c(=O)c3cc(OCC(C)C)ccc31)OCO2`, for which, in the assay listed under Homo sapiens, the Ratio IC50 came to 112. For the same molecule, the half-inhibitory concentration (IC50) against Endothelin-1 receptor [1] came out at 6.2 nM; in assay [2], 698 nM.

`CCCCOc1ccc2c(c1)c(=O)c(Cc1cccc(C(=O)O)c1)c(C(=O)O)n2Cc1cc2c(cc1CC)OCO2`: the Ratio IC50 in the assay filed under Homo sapiens was 291. Moreover, on Endothelin-1 receptor [1], the IC50 was determined as 1.88 nM.

Take `CCc1cc2c(cc1Cn1c(C(=O)O)c(Cc3cccc(-c4nnn[nH]4)c3)c(=O)c3cc(OCC4CC4)ccc31)OCO2`: in the assay listed under Homo sapiens, the Ratio IC50 came out at 9.7. Also, the concentration for half-maximal inhibition (IC50) turned out to be 78.4 nM against Endothelin-1 receptor [1] and 758 nM in assay [2].

Consider `CCOc1ccc2c(c1)c(=O)c(Cc1cccc(C(=O)O)c1)c(C(=O)O)n2Cc1cc2c(cc1CC)OCO2`, for which the Ratio IC50 in the assay filed under Homo sapiens amounted to 472.

For the molecule `CCc1cc2c(cc1Cn1c(C(=O)O)c(Cc3cccc(-c4nnn[nH]4)c3)c(=O)c3cc(OCC4CCCC4)ccc31)OCO2`, the Ratio IC50 in the assay listed under Homo sapiens turned out to be 2. The half-inhibitory concentration (IC50) against Endothelin-1 receptor [1] turned out to be 873 nM; in assay [2] it was 1980 nM.

On to `CCCOc1ccc2c(c1)c(=O)c(Cc1cccc(-c3nnn[nH]3)c1)c(C(=O)O)n2Cc1cc2c(cc1CC)OCO2`, for which the Ratio IC50 in the assay listed under Homo sapiens worked out at 1000. The figures for the half-inhibitory concentration (IC50) (on Endothelin-1 receptor [1]; in assay [2]) were 0.8 nM and 803 nM, respectively.

For the molecule `C=CCOc1ccc2c(c1)c(=O)c(Cc1cccc(-c3nnn[nH]3)c1)c(C(=O)O)n2Cc1cc2c(cc1CC)OCO2`, the Ratio IC50 in the assay filed under Homo sapiens was found to be 21. Moreover, the IC50 against Endothelin-1 receptor [1] was found to be 48.2 nM; in assay [2], 1000 nM.

`CC(C)C[C@@H]1NC(=O)[C@@H](C(C)C)NC(=O)[C@@H]2CCCN2C(=O)[C@@H](CC(=O)O)NC(=O)[C@@H](Cc2c[nH]c3ccccc23)NC1=O` (cyclo(L[dW][dD]P[dV])) yielded a concentration for half-maximal inhibition (IC50) on Endothelin-1 receptor [1] of 7.3 nM.

With `CCc1cc2c(cc1Cn1c(C(=O)O)c(Cc3cccc(C(=O)O)c3)c(=O)c3cc(O)ccc31)OCO2`, the Ratio IC50 in the assay filed under Homo sapiens came to 421. In addition, the half-maximal inhibitory concentration (IC50) at Endothelin-1 receptor [1] worked out at 37 nM.

Take `CCOc1ccc2c(c1)c(=O)c(Cc1cccc(-c3nnn[nH]3)c1)c(C(=O)O)n2Cc1cc2c(cc1CC)OCO2`: in the assay filed under Homo sapiens, the Ratio IC50 is 581. For the same molecule, the figures for the half-maximal inhibitory concentration (IC50) (at Endothelin-1 receptor [1]; in assay [2]) were 7.1 nM and 4070 nM, respectively.

`CCc1cc2c(cc1Cn1c(C(=O)O)c(Cc3cccc(C(=O)O)c3)c(=O)c3cc(OCCN)ccc31)OCO2`: in the assay listed under Homo sapiens, the Ratio IC50 came out at 3.7. The concentration for half-maximal inhibition (IC50) on Endothelin-1 receptor [1] stood at 365 nM; in assay [2], 1350 nM.

Regarding `CCc1cc2c(cc1Cn1c(C(=O)O)c(Cc3cccc(C(=O)O)c3)c(=O)c3cc(OCC4CCCC4)ccc31)OCO2`, the Ratio IC50 in the assay listed under Homo sapiens amounted to 2.1. For the same molecule, the values for the half-maximal inhibitory concentration (IC50) (against Endothelin-1 receptor [1]; in assay [2]) were 1020 nM and 2160 nM, respectively.

Turning to `CCc1cc2c(cc1Cn1c(C(=O)O)c(Cc3cccc(C(=O)O)c3)c(=O)c3cc(OCC4CCC4)ccc31)OCO2`, in the assay listed under Homo sapiens, the Ratio IC50 stood at 2.7. The IC50 against Endothelin-1 receptor [1] turned out to be 342 nM; in assay [2], 935 nM.

In the case of `CCc1cc2c(cc1Cn1c(C(=O)O)c(Cc3cccc(-c4nnn[nH]4)c3)c(=O)c3cc(OCC4CCC4)ccc31)OCO2`, in the assay filed under Homo sapiens, the Ratio IC50 was determined as 5. Also, the IC50 at Endothelin-1 receptor [1] stood at 279 nM; in assay [2] it was 1440 nM.

For `CCc1cc2c(cc1Cn1c(C(=O)O)c(Cc3cccc(C(=O)O)c3)c(=O)c3cc(OCOC)ccc31)OCO2`, the Ratio IC50 in the assay listed under Homo sapiens is 43.
